The structures appear in SMILES notation. pIC50: −log10 of the molar value. Bounds are passed on as bounds.

25 compounds from ChEMBL document CHEMBL1817620, “Synthesis and cytotoxicity of 2-phenylquinazolin-4(3H)-one derivatives” (Eur J Med Chem, 2011) can be followed below.

Common to all, as to assay type: functional, cell-based
In one test the test system is MDA-MB-231. Briefly: Cytotoxicity against human MDA-MB-231 cells after 4 days by MTT assay. The conditions noted are these: MDA-MB-231, 96 h.
The next test deals with HeLa. Briefly: Cytotoxicity against human HeLa cells after 4 days by MTT assay. The conditions noted are these: 96 h.
Another test relates to DU-145. Briefly: Cytotoxicity against human DU145 cells after 4 days by MTT assay. The conditions noted are these: DU-145, 96 h.
In a further test the test system is HL-60. As to the kind of experiment: Cytotoxicity against human HL60 cells after 4 days by MTT assay. The conditions noted are these: HL-60, 96 h.
The next test deals with HCT-29. Briefly: Cytotoxicity against human HCT29 cells after 4 days by MTT assay. The conditions noted are these: HCT-29, 96 h.

Turning to `CC(C)S(=O)(=O)N1CCN(C(=O)c2ccc(-c3nc4ccccc4c(=O)[nH]3)cc2)CC1`, the pIC50 in the test on MDA-MB-231 was 5.24; with HeLa, 4.96; in the test with DU-145, 4.76; in the test on HL-60 it was 5.12; with HCT-29, less than 4.30.

Regarding `O=C(c1ccc(-c2nc3ccccc3c(=O)[nH]2)cc1)N1CCN(S(=O)(=O)c2ccc(F)cc2)CC1`, the pIC50 in the test on MDA-MB-231 was 4.56; in the test with HeLa it was 4.45; with DU-145, 4.46; in the test with HL-60, 4.96; with HCT-29, 4.95.

Regarding `Cc1ccc(CS(=O)(=O)N2CCN(C(=O)c3ccc(-c4nc5ccccc5c(=O)[nH]4)cc3)CC2)cc1`, the pIC50 in the test with MDA-MB-231 was 5.11; in the test with HeLa it was 5.05; in the test with DU-145 it was 4.53; in the test with HL-60, 4.78; in the test with HCT-29, 4.71.

In the case of `COc1cccc2c1C(=O)c1c(O)c3c(c(O)c1C2=O)C[C@@](O)(C(=O)CO)C[C@@H]3O[C@H]1C[C@H](N)[C@H](O)[C@H](C)O1` [DOXORUBICIN], the pIC50 is 5.43 in the test on HeLa, 5.72 in the test with DU-145, 6.10 in the test on HL-60 and 5.60 in the test with HCT-29.

With `O=C(c1ccc(-c2nc3ccccc3c(=O)[nH]2)cc1)N1CCN(S(=O)(=O)C2CC2)CC1`, the pIC50 is 5.09 with MDA-MB-231; less than 4.30 in the test on HeLa; 5.22 in the test on DU-145; 4.97 in the test with HL-60; less than 4.30 in the test on HCT-29.

With `CCCCS(=O)(=O)N1CCN(C(=O)c2ccc(-c3nc4ccccc4c(=O)[nH]3)cc2)CC1`, the pIC50 is 5.92 in the test on MDA-MB-231; 4.76 with HeLa; 4.75 in the test on DU-145; 4.83 in the test with HL-60; 4.99 in the test with HCT-29.

For `COc1ccc(S(=O)(=O)N2CCN(C(=O)c3ccc(-c4nc5ccccc5c(=O)[nH]4)cc3)CC2)cc1`, the pIC50 in the test with MDA-MB-231 was 5.29; in the test on HeLa, less than 4.30; with DU-145, 4.57; in the test on HL-60, 5.12; with HCT-29, 4.67.

Consider `O=C(c1ccc(-c2nc3ccccc3c(=O)[nH]2)cc1)N1CCN(S(=O)(=O)c2cccc3ccccc23)CC1`, for which the pIC50 was 4.65 in the test with MDA-MB-231; 4.93 with HeLa; 5.00 with DU-145; 5.15 with HL-60; 4.94 in the test on HCT-29.

With `O=C(c1ccc(-c2nc3ccccc3c(=O)[nH]2)cc1)N1CCN(S(=O)(=O)c2ccccc2)CC1`, the negative-log IC50 (pIC50) was 4.49 with MDA-MB-231; 5.05 in the test with HeLa; 5.15 in the test with DU-145; 4.84 in the test on HL-60; 4.90 in the test on HCT-29.

In the case of `Cn1c(-c2ccc(C(=O)N3CCN(C(=O)OC(C)(C)C)CC3)cc2)nc2ccccc2c1=O`, the pIC50 in the test on MDA-MB-231 is 4.60; with HeLa, 4.81; with DU-145 it was 4.76; with HL-60 it was 5.02; in the test on HCT-29, 4.55.

For the compound `O=C(c1ccc(-c2nc3ccccc3c(=O)[nH]2)cc1)N1CCN(S(=O)(=O)c2cccc3cccnc23)CC1`, the pIC50 in the test with MDA-MB-231 was 5.20; in the test on HeLa, 4.95; in the test on DU-145, 4.81; in the test with HL-60 it was 4.84; with HCT-29 it was less than 4.30.

Regarding `O=C(c1ccc(-c2nc3ccccc3c(=O)n2Cc2ccccc2)cc1)N1CCN(S(=O)(=O)c2ccccc2)CC1`, the pIC50 is 4.71 with MDA-MB-231; 4.70 in the test on HeLa; 4.82 in the test on DU-145; 5.38 in the test with HL-60; 4.63 in the test with HCT-29.

`Cn1c(-c2ccc(C(=O)N3CCN(S(=O)(=O)c4ccccc4)CC3)cc2)nc2ccccc2c1=O`: the pIC50 is 5.04 in the test on MDA-MB-231; 4.85 with HeLa; 4.98 with DU-145; 5.23 with HL-60; 4.88 in the test with HCT-29.

For `O=C(O)c1ccc(-c2nc3ccccc3c(=O)[nH]2)cc1`, the pIC50 was less than 4.30 in the test with MDA-MB-231; less than 4.30 in the test with HeLa; 4.55 in the test on DU-145; 4.93 in the test with HL-60; 4.51 in the test with HCT-29.

In the case of `O=C(c1ccc(-c2nc3ccccc3c(=O)[nH]2)cc1)N1CCN(S(=O)(=O)c2cccc(C(F)(F)F)c2)CC1`, the pIC50 with MDA-MB-231 is less than 4.30; with HeLa, 5.03; in the test on DU-145, 4.85; in the test with HL-60 it was 4.63; with HCT-29, 5.02.

`CS(=O)(=O)N1CCN(C(=O)c2ccc(-c3nc4ccccc4c(=O)[nH]3)cc2)CC1`: the pIC50 with MDA-MB-231 was 5.19; with HeLa, less than 4.30; in the test with DU-145 it was 4.70; in the test with HL-60, 4.94; in the test with HCT-29, less than 4.30.

As to `O=C(c1ccc(-c2nc3ccccc3c(=O)[nH]2)cc1)N1CCN(S(=O)(=O)c2ccc(Cl)cc2)CC1`, the pIC50 is less than 4.30 with MDA-MB-231; 4.74 in the test with HeLa; less than 4.30 in the test with DU-145; 4.87 with HL-60; less than 4.30 in the test with HCT-29.

Regarding `COc1ccc(S(=O)(=O)N2CCN(C(=O)c3ccc(-c4nc5ccccc5c(=O)n4C)cc3)CC2)cc1`, the pIC50 in the test with MDA-MB-231 was less than 4.30; with HeLa, 4.63; in the test with DU-145, 4.67; in the test with HL-60, 5.23; with HCT-29, 4.59.

As to `CC(C)c1ccc(S(=O)(=O)N2CCN(C(=O)c3ccc(-c4nc5ccccc5c(=O)[nH]4)cc3)CC2)cc1`, the pIC50 with MDA-MB-231 is 5.03; with HeLa it was 4.76; in the test on DU-145, 4.79; in the test with HL-60 it was 5.59; in the test on HCT-29 it was 5.05.

In the case of `Cc1ccc(S(=O)(=O)N2CCN(C(=O)c3ccc(-c4nc5ccccc5c(=O)[nH]4)cc3)CC2)cc1`, the pIC50 is 4.36 in the test with MDA-MB-231; 4.63 in the test on HeLa; 4.74 with DU-145; 5.08 with HL-60; 4.98 in the test with HCT-29.

For the compound `O=C(c1ccc(-c2nc3ccccc3c(=O)[nH]2)cc1)N1CCNCC1`, the pIC50 is less than 4.30 in the test with MDA-MB-231; less than 4.30 in the test on HeLa; 4.61 with DU-145; 4.78 in the test with HL-60; less than 4.30 in the test on HCT-29.

As for `COc1ccc(S(=O)(=O)N2CCN(C(=O)c3ccc(-c4nc5ccccc5c(=O)n4Cc4ccccc4)cc3)CC2)cc1`, the pIC50 in the test with MDA-MB-231 was 4.32; with HeLa, 4.47; in the test with DU-145, 4.80; in the test with HL-60 it was 5.21; with HCT-29, 4.65.

As for `O=C(c1ccc(-c2nc3ccccc3c(=O)[nH]2)cc1)N1CCN(S(=O)(=O)c2cccs2)CC1`, the pIC50 with MDA-MB-231 is 5.03; in the test with HeLa, less than 4.30; with DU-145 it was 4.67; with HL-60, 5.66; in the test on HCT-29, 4.80.

Consider `CC(C)(C)OC(=O)N1CCN(C(=O)c2ccc(-c3nc4ccccc4c(=O)n3Cc3ccccc3)cc2)CC1`, for which the pIC50 in the test on MDA-MB-231 is 4.39; with HeLa, 4.67; in the test on DU-145, less than 4.30; with HL-60 it was 5.54; with HCT-29, less than 4.30.

On to `O=C(c1ccc(-c2nc3ccccc3c(=O)[nH]2)cc1)N1CCN(S(=O)(=O)c2ccc3ccccc3c2)CC1`, for which the pIC50 with MDA-MB-231 was less than 4.30; in the test on HeLa it was 4.88; in the test on DU-145, 4.56; in the test with HL-60 it was 4.58; with HCT-29 it was 4.78.
